The values that follow come from patent US20230015595A1, “USE OF VALPROIC ACID FOR REDUCING POST-OPERATIVE SCARRING FOLLOWING A GLAUCOMA SURGERY” (SANTEN PHARMACEUTICAL CO., LTD., priority 2019, published 2023).

“Also recorded” adds a separate entry of the source.

Assay [1] deals with rabbit model of microshunt implant surgery. Kind of assay: Rabbit model of microshunt implant surgery, MMC high/low dose and low dose MMC with VPA. It is filed as in vivo.
In assay [2] the test system is mouse model of conjunctival scarring. The experiment in a line: Mouse model of conjunctival scarring, quantitative multiphoton imaging and histology of collagen. It is filed as in vivo. The text has this:
The conjunctiva was dissected to reveal the sclera where an incision was made into the anterior chamber. The resulting fistula allowed aqueous humor to exit into and underneath the conjunctiva. The accumulated fluid underneath the sutured conjunctiva was observed as a conjunctival bleb. To determine whether VPA has the capacity to protect collagen architecture, quantitative multiphoton imaging as described in Xu S et al (J. Hepatol., 2014, 61(2):260-269) was used to measure collagen properties in the mouse model of conjunctival scarring treated with VPA. The onset of scarring, as indicated by peak production of collagen mRNA, was measured on day 7 post-surgery. The mature scar was measured on day 14 post-surgery when collagen mRNA production was subdued. To study the impact of VPA on the collagen architecture during the onset of scarring on day 7, mice were injected with 300 μg/ml VPA directly into the operated area immediately after surgery and on day 2. To determine the effect of VPA in the mature scar on day 14, mice were injected as above, with an additional injection on day 7. By this method, it could be readily observed in histologically-stained sections as well as multiphoton scans that collagen fibers in the VPA-treated eyes were thinner than those in the PBS-treated control eyes. Exemplary collagen fibers showing the thinning effect of VPA are indicated by the white arrowheads in FIG. 2.

Assay [3] has as its system human Tenons conjunctival fibroblasts. Kind of assay: Type I collagen (Col1a1) expression in human Tenons conjunctival fibroblasts. It is filed as cell-based. Particulars: human Tenons conjunctival fibroblasts from three donors. Here is the method: Likewise, for application in human, the dosage of VPA to be used was determined as in the rabbit model for effectiveness in reducing type I collagen. The effect of VPA on type I collagen expression in human Tenons conjunctival fibroblasts derived from three independent donors was investigated, and the results are as shown in FIG. 6B.

The subject of assay [4] is rabbit model of microshunt implant surgery. The experiment in a line: Rabbit model of microshunt implant surgery (PRESERFLO MicroShunt), VPA alone vs PBS. It is filed as in vivo. The method, then:
The rabbit model of microshunt implant surgery using the PRESERFLO® MicroShunt (Santen) was performed with a total of 11 injections of 300 μg/ml VPA, immediately after surgery, and once daily for first 7 days, followed by injections on days 10, 14 and 21 post-surgery. The rabbit eyes were evaluated by slit lamp photography (FIG. 7).
Confocal microscopy was used to correlate bleb appearance and function. It is known that significant positively correlating features include cyst size and vasculature density/tortuosity.

Assay [5] has as its system primary rabbit conjunctival fibroblasts. Kind of assay: Type I collagen (Col1a1) expression and cell growth in primary rabbit conjunctival fibroblasts. In kind it is cell-based. The method, then: For application in the rabbit model of microshunt implant surgery (PRESERFLO® MicroShunt, Santen), the dosage of VPA to be used was determined using primary rabbit conjunctival fibroblasts for (1) effectiveness in reducing type I collagen, and (2) non-toxicity on cell growth, as shown in FIG. 6.

The mark [6] stands for this setting: 300 μg/ml VPA, 28 days post-surgery, vs PBS.
Setting [7] is: 300 μg/ml VPA, day 28 rabbit tissues.
[8] abbreviates: 300 μg/ml VPA, day 28 rabbit tissues, vs PBS controls.

As to `CO[C@@]12[C@H](COC(N)=O)C3=C(C(=O)C(C)=C(N)C3=O)N1C[C@@H]1N[C@@H]12` [MMC, mitomycin C], the “mRNA expression of Col1a1” value in assay [1] (0.1 mg/ml MMC, day 28 rabbit tissues, vs 0.4 mg/ml MMC and 0.1 mg/ml MMC+VPA, n=5) is on record as “significantly higher”. For the same compound, in assay [1] (rabbit, in vivo), the “bleb cysts (confocal microscopy)” value was “large cysts; also recorded: smaller cysts”; the “bleb morphology (slit lamp)” value was “starkly avascular and cystic bleb; also recorded: less avascular and mildly cystic bleb”; the “collagen fibers around implant tip (picrosirius red, polarised light)” value was “thick collagen fibers encapsulating the implant”.

Turning to `CCCC(CCC)C(=O)O` [VPA, valproic acid], the “collagen fibers in histologically-stained sections and multiphoton scans” value in assay [2] (300 μg/ml VPA injected into operated area, vs PBS-treated control eyes) is on record as “thinner”. In assay [2] (300 μg/ml VPA, both time points (days 7 and 14), vs PBS), the “number of collagen fibers per mm^2” value is “significantly reduced”. Also, in assay [2] (300 μg/ml VPA, day 7, vs PBS treatment), the “Collagen Reticulation Index (CRI)” value was “significant reduction”. The “Collagen Reticulation Index (CRI)” value in assay [2] (300 μg/ml VPA, day 14 mature scar) was “lack of effect”. Moreover, in assay [2] (300 μg/ml VPA, days 7 and 14 post-surgery, vs PBS), the “collagen area ratio (CAR)” value is listed as “significantly reduced”. Besides, in assay [2] (300 μg/ml VPA, operated conjunctival sections, vs PBS), the “collagen thickness (quantitative multiphoton analyses)” value is listed as “reduced”. Also, the “collagen reticulation (measured as CRI and CARD)” value in assay [2] (300 μg/ml VPA, post-operative conjunctiva) is on record as “not induced”. For the same compound, in assay [2] (300 μg/ml VPA, vs PBS controls), the “collagen fiber density (CFD)” value is given as “lack of significant difference”. Besides, the “collagen fibers around implant tip (picrosirius red, polarised light)” value in assay [1] (VPA 300 μg/mL with 0.1 mg/ml MMC (condition c)) is reported as “reduced the presence of the thick fibers encapsulating the implant”. Moreover, the “lowest concentration effective in significantly reducing Col1a1 expression without disrupting cell proliferation” value in assay [3] was 300 µg/mL. The “bleb collagen fiber packing (confocal microscopy)” value in assay [4] (300 μg/ml VPA, 28 days post-surgery, PBS tightly-packed) was “loosely packed collagen fibers”. Moreover, the “bleb vasculature (confocal microscopy)” value in assay [4] (300 μg/ml VPA, 28 days post-surgery, PBS tortuous) is reported as “straight”. The “bleb collagen characteristics (histology)” value in assay [4] (300 μg/ml VPA, 28 days post-surgery, compared to normal tissue) is “thinner and similarly organized array of collagen fibers”. Further, in assay [4] (setting [6]), the “COL1A1 and fibronectin fibers (immunofluorescent staining)” value was “thinner and more diffusely distributed fibers”; the “bleb cysts (confocal microscopy)” value was “large cysts”. Also, in assay [4] (setting [7]), the Smad6 expression entry is given as “significantly induced” and the Vegfa expression result is “significantly elevated”. Also, in assay [4] (setting [8]), the collagen transcript expression result was “significantly reduced” and the fibronectin transcript expression entry is “significantly reduced”. For the same compound, the “time a filtering bleb was maintained (slit lamp)” value in assay [4] (11 injections of 300 μg/ml VPA, PBS bleb failed by day 14) is “at least 28 days”. In addition, the “lowest concentration effective in significantly reducing Col1a1 expression without disrupting cell proliferation” value in assay [5] came out at 300 µg/mL.
